Laboratory results: PubChem BioAssay AID284 (DTP/NCI, 2004)
“And” between values parts separate entries of the source, which are not always exact repeats. Equal entries are not always repeated. Inconclusive results and toxic doses are left out.

Test system: BDF1 mice, L1210/MTX-resistant leukemia ip, survival T/C
Assay: NCI In Vivo Anticancer Drug Screen. Data for tumor model L1210 Leukemia resistant to Methotrexate; NSC 740 (intraperitoneal) in B6D2F1 (BDF1) mice
Conditions: endpoint: mean survival time, higher = longer survival
Procedure: The antitumor activity of compounds was measured in mice bearing transplantable tumors. Survival or tumor size were measured and the results are expressed as the measurement made in the treated group (T) divided by the measurement made in the vehicle treated control group (C). The tumor model used in this assay is L1210 Leukemia resistant to Methotrexate; NSC 740 (intraperitoneal) in B6D2F1 (BDF1) mice

[1] = dose: 2.0 mg/kg/injection, schedule: Q01DX Z (ip), vehicle: carboxymethylcellulose (CMC)
[2] = dose: 25.0 mg/kg/injection, schedule: Q01DX Z (ip), vehicle: carboxymethylcellulose (CMC)
[3] = dose: 50.0 mg/kg/injection, schedule: Q01DX Z (ip), vehicle: carboxymethylcellulose (CMC)
[4] = dose: 16.0 mg/kg/injection, schedule: Q01DX010 (ip), vehicle: saline
[5] = dose: 32.0 mg/kg/injection, schedule: Q01DX010 (ip), vehicle: saline
[6] = dose: 64.0 mg/kg/injection, schedule: Q01DX010 (ip), vehicle: saline
[7] = dose: 12.5 mg/kg/injection, schedule: Q01DX010 (ip), vehicle: saline
[8] = dose: 125.0 mg/kg/injection, schedule: Q01DX Z (sc), vehicle: steriod suspending solution
[9] = dose: 4.0 mg/kg/injection, schedule: Q01DX010 (ip), vehicle: other
[10] = dose: 8.0 mg/kg/injection, schedule: Q01DX010 (ip), vehicle: other
[11] = dose: 16.0 mg/kg/injection, schedule: Q01DX010 (ip), vehicle: other

CC1(C)N=C(N)N=C(N)N1c1cccc(Br)c1
T/C [1]: 97 % of control | T/C (dose: 6.25 mg/kg/injection, schedule: Q01DX Z (ip), vehicle: carboxymethylcellulose (CMC)): 109 % of control | T/C (dose: 12.5 mg/kg/injection, schedule: Q01DX Z (ip), vehicle: carboxymethylcellulose (CMC)): 98 % of control | T/C [2]: 98 % of control | T/C [3]: 92 % of control

O=c1cnn(C2OC(CO)C(O)C2O)c(=O)[nH]1 (centres undefined)
T/C (dose: 125.0 mg/kg/injection, schedule: Q01DX Z (ip), vehicle: methylcellulose (MC)): 97 % of control | T/C (dose: 250.0 mg/kg/injection, schedule: Q01DX Z (ip), vehicle: methylcellulose (MC)): 95 % of control | T/C (dose: 500.0 mg/kg/injection, schedule: Q01DX Z (ip), vehicle: methylcellulose (MC)): 104 % of control

CC(=O)Nc1ccc2nc3ccc(NC(C)=O)cc3[n+](-c3ccccc3)c2c1
T/C [1]: 107 % of control | T/C (dose: 3.0 mg/kg/injection, schedule: Q01DX Z (ip), vehicle: carboxymethylcellulose (CMC)): 88 % of control | T/C (dose: 6.0 mg/kg/injection, schedule: Q01DX Z (ip), vehicle: carboxymethylcellulose (CMC)): 100 % of control

Nc1nc(F)nc2c1ncn2C1OC(CO)C(O)C1O (centres undefined)
T/C (dose: 0.25 mg/kg/injection, schedule: Q01DX Z (ip), vehicle: saline): 122 % of control | T/C (dose: 0.75 mg/kg/injection, schedule: Q01DX Z (ip), vehicle: saline): 115 % of control | T/C (dose: 1.5 mg/kg/injection, schedule: Q01DX Z (ip), vehicle: saline): 108 % of control | T/C (dose: 3.0 mg/kg/injection, schedule: Q01DX Z (ip), vehicle: saline): 104 % of control | T/C (dose: 6.0 mg/kg/injection, schedule: Q01DX Z (ip), vehicle: saline): 86 % of control | T/C (dose: 25.0 micrograms/kg/injection, schedule: Q01DX Z (ip), vehicle: saline): 91 % of control | T/C (dose: 50.0 micrograms/kg/injection, schedule: Q01DX Z (ip), vehicle: saline): 92 % of control | T/C (dose: 100.0 micrograms/kg/injection, schedule: Q01DX Z (ip), vehicle: saline): 100 % of control | T/C (dose: 210.0 micrograms/kg/injection, schedule: Q01DX Z (ip), vehicle: saline): 86 % of control

C[C@]12CC[C@H](OC3OC(CO)C(O)C(O)C3O)C[C@H]1CC[C@@H]1[C@@H]2CC[C@]2(C)[C@@H](C3=CCOC3=O)CC[C@]12O (some centres undefined)
T/C (dose: 1.0 mg/kg/injection, schedule: Q01DX Z (ip), vehicle: saline): 86 % of control

NC(=O)N(CCCl)N=O
T/C (dose: 0.5 mg/kg/injection, schedule: Q01DX010 (ip), vehicle: saline): 158 % of control | T/C (dose: 4.0 mg/kg/injection, schedule: Q01DX010 (ip), vehicle: saline): 104 % of control

CCCCn1cnc2c(=S)nc[nH]c21
T/C [4]: 114 % of control | T/C [5]: 97 % of control | T/C [6]: 105 % of control

O=C(Nc1ccc(C2=NCCN2)cc1)c1cccc(C(=O)Nc2ccc(C3=NCCN3)cc2)c1
T/C (dose: 8.0 mg/kg/injection, schedule: Q01DX010 (ip), vehicle: saline): 177 % of control and 209 % of control | T/C (dose: 12.5 mg/kg/injection, schedule: Q01DX Z (ip), vehicle: methylcellulose (MC)): 122 % of control | T/C [4]: 211 % of control and 247 % of control | T/C [5]: 225 % of control and 256 % of control | T/C (dose: 50.0 mg/kg/injection, schedule: Q01DX Z (ip), vehicle: methylcellulose (MC)): 95 % of control | T/C [6]: 235 % of control and 250 % of control

[I][Hg][CH2]C1COC([CH2][Hg][I])CO1 (centres undefined)
T/C (dose: 0.8 mg/kg/injection, schedule: Q01DX Z (ip), vehicle: methylcellulose (MC)): 94 % of control | T/C (dose: 1.6 mg/kg/injection, schedule: Q01DX Z (ip), vehicle: methylcellulose (MC)): 94 % of control | T/C (dose: 6.25 mg/kg/injection, schedule: Q01DX010 (ip), vehicle: saline): 101 % of control | T/C [7]: 103 % of control

Nc1ncnc2[nH]ncc12
T/C (dose: 1.5 mg/kg/injection, schedule: Q01DX010 (ip), vehicle: saline): 91 % of control and 107 % of control | T/C (dose: 3.0 mg/kg/injection, schedule: Q01DX010 (ip), vehicle: saline): 96 % of control and 102 % of control | T/C (dose: 6.0 mg/kg/injection, schedule: Q01DX010 (ip), vehicle: saline): 99 % of control and 103 % of control | T/C (dose: 12.0 mg/kg/injection, schedule: Q01DX010 (ip), vehicle: saline): 89 % of control

N#CCSc1ncnc2nc[nH]c12
T/C [2]: 101 % of control | T/C [3]: 120 % of control | T/C (dose: 100.0 mg/kg/injection, schedule: Q01DX Z (ip), vehicle: carboxymethylcellulose (CMC)): 111 % of control

CN(C)/N=N/c1nc[nH]c1C(N)=O
T/C [7]: 108 % of control | T/C (dose: 25.0 mg/kg/injection, schedule: Q01DX010 (ip), vehicle: saline): 118 % of control | T/C (dose: 50.0 mg/kg/injection, schedule: Q01DX010 (ip), vehicle: saline): 119 % of control | T/C (dose: 100.0 mg/kg/injection, schedule: Q01DX010 (ip), vehicle: saline): 118 % of control

Clc1ccc(C(c2ccccc2Cl)C(Cl)Cl)cc1 (centres undefined)
T/C (dose: 62.5 mg/kg/injection, schedule: Q01DX Z (sc), vehicle: steriod suspending solution): 105 % of control | T/C [8]: 99 % of control | T/C (dose: 250.0 mg/kg/injection, schedule: Q01DX Z (sc), vehicle: steriod suspending solution): 107 % of control | T/C (dose: 500.0 mg/kg/injection, schedule: Q01DX Z (sc), vehicle: steriod suspending solution): 110 % of control

c1ccc(CCSc2ncnc3nc[nH]c23)cc1
T/C (dose: 62.5 mg/kg/injection, schedule: Q01DX010 (ip), vehicle: saline): 93 % of control | T/C (dose: 125.0 mg/kg/injection, schedule: Q01DX010 (ip), vehicle: saline): 91 % of control | T/C (dose: 250.0 mg/kg/injection, schedule: Q01DX010 (ip), vehicle: saline): 100 % of control | T/C (dose: 500.0 mg/kg/injection, schedule: Q01DX010 (ip), vehicle: saline): 100 % of control

C[C@]12CCC(=O)C=C1CC[C@@H]1[C@@H]2C(=O)C[C@@]2(C)[C@H]1CC[C@]2(O)C(=O)CO
T/C (dose: 63.0 mg/kg/injection, schedule: Q01DX Z (sc), vehicle: steriod suspending solution): 101 % of control and 106 % of control | T/C (dose: 100.0 mg/kg/injection, schedule: Q01DX Z (sc), vehicle: steriod suspending solution): 89 % of control | T/C [8]: 98 % of control and 102 % of control

O=C(Nc1ccc(C2=NCCN2)cc1)c1ccc(C(=O)Nc2ccc(C3=NCCN3)cc2)cc1
T/C [9]: 194 % of control and 204 % of control | T/C [10]: 244 % of control and 279 % of control | T/C (dose: 10.0 mg/kg/injection, schedule: Q01DX Z (ip), vehicle: methylcellulose (MC)): 124 % of control and 105 % of control | T/C [11]: 218 % of control and 219 % of control | T/C (dose: 20.0 mg/kg/injection, schedule: Q01DX Z (ip), vehicle: methylcellulose (MC)): 120 % of control and 106 % of control | T/C (dose: 32.0 mg/kg/injection, schedule: Q01DX010 (ip), vehicle: other): 231 % of control and 239 % of control | T/C (dose: 40.0 mg/kg/injection, schedule: Q01DX Z (ip), vehicle: methylcellulose (MC)): 117 % of control | T/C (dose: 64.0 mg/kg/injection, schedule: Q01DX010 (ip), vehicle: other): 222 % of control and 242 % of control

O=C(Nc1ccc(C2=NCCCN2)cc1)c1ccc(C(=O)Nc2ccc(C3=NCCCN3)cc2)cc1
T/C (dose: 2.0 mg/kg/injection, schedule: Q01DX010 (ip), vehicle: other): 222 % of control and 252 % of control | T/C [9]: 124 % of control and 242 % of control | T/C (dose: 5.0 mg/kg/injection, schedule: Q01DX Z (ip), vehicle: carboxymethylcellulose (CMC)): 208 % of control | T/C (dose: 7.5 mg/kg/injection, schedule: Q01DX Z (ip), vehicle: carboxymethylcellulose (CMC)): 122 % of control | T/C [10]: 114 % of control and 93 % of control | T/C (dose: 10.0 mg/kg/injection, schedule: Q01DX Z (ip), vehicle: carboxymethylcellulose (CMC)): 114 % of control | T/C (dose: 15.0 mg/kg/injection, schedule: Q01DX Z (ip), vehicle: carboxymethylcellulose (CMC)): 100 % of control | T/C [11]: 93 % of control | T/C (dose: 20.0 mg/kg/injection, schedule: Q01DX Z (ip), vehicle: carboxymethylcellulose (CMC)): 98 % of control | T/C [2]: 96 % of control

Nc1ccc(C(=O)NO)cc1
T/C (dose: 112.0 mg/kg/injection, schedule: Q01DX015 (ip), vehicle: carboxymethylcellulose (CMC)): 109 % of control | T/C (dose: 225.0 mg/kg/injection, schedule: Q01DX015 (ip), vehicle: carboxymethylcellulose (CMC)): 117 % of control | T/C (dose: 450.0 mg/kg/injection, schedule: Q01DX015 (ip), vehicle: carboxymethylcellulose (CMC)): 100 % of control
